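Where inhibition never reached the appropriate level, the endpoint shown equals the highest concentration tested. Otherwise, values were interpolated linearly from a five-concentration, 48-hour dose response in 96-well plates. GI50 is the concentration that inhibits growth by half. At the TGI there is no net growth.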
Legend:
Experiment in all cases: NCI anticancer screen, dose series, 48 h
HCT-116 colon = tested on: HCT-116 colon
NCI/ADR-RES ovarian = tested on: NCI/ADR-RES ovarian
SNB-19 CNS = tested on: SNB-19 CNS
SF-295 CNS = tested on: SF-295 CNS
LOX IMVI melanoma = tested on: LOX IMVI melanoma
MOLT-4 leukemia = tested on: MOLT-4 leukemia
OVCAR-3 ovarian = tested on: OVCAR-3 ovarian
NCI-H23 lung = tested on: NCI-H23 lung
SK-MEL-5 melanoma = tested on: SK-MEL-5 melanoma
DU-145 prostate = tested on: DU-145 prostate
HOP-62 NSCLC = tested on: HOP-62 NSCLC
T-47D breast = tested on: T-47D breast
M14 melanoma = tested on: M14 melanoma
A549 NSCLC = tested on: A549 NSCLC
U251 CNS = tested on: U251 CNS
K-562 leukemia = tested on: K-562 leukemia
HL-60(TB) leukemia = tested on: HL-60(TB) leukemia
SF-268 CNS = tested on: SF-268 CNS
KM12 colon = tested on: KM12 colon
ACHN renal = tested on: ACHN renal
NCI-H522 lung = tested on: NCI-H522 lung
OVCAR-8 ovarian = tested on: OVCAR-8 ovarian
HCC-2998 colon = tested on: HCC-2998 colon
CCRF-CEM leukemia = tested on: CCRF-CEM leukemia
NCI-H226 lung = tested on: NCI-H226 lung
UACC-62 melanoma = tested on: UACC-62 melanoma
RXF 393 renal = tested on: RXF 393 renal
HS 578T breast = tested on: HS 578T breast
SF-539 CNS = tested on: SF-539 CNS
UACC-257 melanoma = tested on: UACC-257 melanoma
EKVX NSCLC = tested on: EKVX NSCLC
SNB-75 CNS = tested on: SNB-75 CNS
UO-31 renal = tested on: UO-31 renal
PC-3 prostate = tested on: PC-3 prostate
HCT-15 colon = tested on: HCT-15 colon
SN12C renal = tested on: SN12C renal
SK-MEL-28 melanoma = tested on: SK-MEL-28 melanoma
HT29 colon = tested on: HT29 colon
NCI-H460 lung = tested on: NCI-H460 lung
SW-620 colon = tested on: SW-620 colon
SK-MEL-2 melanoma = tested on: SK-MEL-2 melanoma
MDA-MB-231 breast = tested on: MDA-MB-231 breast
TK-10 renal = tested on: TK-10 renal
CAKI-1 renal = tested on: CAKI-1 renal
MALME-3M melanoma = tested on: MALME-3M melanoma
HOP-92 NSCLC = tested on: HOP-92 NSCLC
MCF7 breast = tested on: MCF7 breast
MDA-MB-435 = tested on: MDA-MB-435
786-0 renal = tested on: 786-0 renal
SK-OV-3 ovarian = tested on: SK-OV-3 ovarian
OVCAR-5 ovarian = tested on: OVCAR-5 ovarian
RPMI-8226 leukemia = tested on: RPMI-8226 leukemia
COLO 205 colon = tested on: COLO 205 colon
OVCAR-4 ovarian = tested on: OVCAR-4 ovarian
IGROV1 ovarian = tested on: IGROV1 ovarian
SR leukemia = tested on: SR leukemia
A498 renal = tested on: A498 renal

Compound: Oc1c(C(O)c2ccccn2)ccc2ccccc12 (stereo not given)
- TGI (HCT-116 colon): > 100 µM
- TGI (NCI/ADR-RES ovarian): > 100 µM
- TGI (SNB-19 CNS): > 100 µM
- TGI (SF-295 CNS): > 100 µM
- TGI (LOX IMVI melanoma): > 100 µM
- TGI (MOLT-4 leukemia): > 100 µM
- TGI (OVCAR-3 ovarian): > 100 µM
- TGI (NCI-H23 lung): > 100 µM
- TGI (SK-MEL-5 melanoma): > 100 µM
- TGI (DU-145 prostate): > 100 µM
- TGI (HOP-62 NSCLC): > 100 µM
- TGI (T-47D breast): > 100 µM
- TGI (M14 melanoma): > 100 µM
- TGI (A549 NSCLC): > 100 µM
- TGI (U251 CNS): > 100 µM
- TGI (K-562 leukemia): > 100 µM
- TGI (HL-60(TB) leukemia): 42.1 µM
- TGI (SF-268 CNS): > 100 µM
- TGI (KM12 colon): > 100 µM
- TGI (ACHN renal): > 100 µM
- TGI (NCI-H522 lung): 74.1 µM
- TGI (OVCAR-8 ovarian): > 100 µM
- TGI (HCC-2998 colon): 59.4 µM
- TGI (CCRF-CEM leukemia): > 100 µM
- TGI (NCI-H226 lung): > 100 µM
- TGI (UACC-62 melanoma): 46.1 µM
- TGI (RXF 393 renal): > 100 µM
- TGI (HS 578T breast): > 100 µM
- TGI (SF-539 CNS): > 100 µM
- TGI (UACC-257 melanoma): > 100 µM
- TGI (EKVX NSCLC): > 100 µM
- TGI (SNB-75 CNS): > 100 µM
- TGI (UO-31 renal): > 100 µM
- TGI (PC-3 prostate): > 100 µM
- TGI (HCT-15 colon): 97 µM
- TGI (SN12C renal): > 100 µM

Compound: S=c1[nH]n2c(Cc3ccccc3)nnc2s1
- TGI (HCT-116 colon): > 100 µM
- TGI (NCI/ADR-RES ovarian): > 100 µM
- TGI (SK-MEL-28 melanoma): > 100 µM
- TGI (HT29 colon): > 100 µM
- TGI (SNB-19 CNS): > 100 µM
- TGI (SF-295 CNS): > 100 µM
- TGI (NCI-H460 lung): > 100 µM
- TGI (SW-620 colon): > 100 µM
- TGI (SK-MEL-2 melanoma): > 100 µM
- TGI (MDA-MB-231 breast): > 100 µM
- TGI (TK-10 renal): > 100 µM
- TGI (LOX IMVI melanoma): > 100 µM
- TGI (MOLT-4 leukemia): > 100 µM
- TGI (OVCAR-3 ovarian): > 100 µM
- TGI (CAKI-1 renal): > 100 µM
- TGI (NCI-H23 lung): > 100 µM
- TGI (SK-MEL-5 melanoma): > 100 µM
- TGI (DU-145 prostate): > 100 µM
- TGI (HOP-62 NSCLC): > 100 µM
- TGI (T-47D breast): > 100 µM
- TGI (M14 melanoma): > 100 µM
- TGI (MALME-3M melanoma): > 100 µM
- TGI (A549 NSCLC): > 100 µM
- TGI (U251 CNS): > 100 µM
- TGI (K-562 leukemia): > 100 µM
- TGI (HOP-92 NSCLC): > 100 µM
- TGI (MCF7 breast): > 100 µM
- TGI (HL-60(TB) leukemia): > 100 µM
- TGI (SF-268 CNS): > 100 µM
- TGI (KM12 colon): > 100 µM
- TGI (ACHN renal): > 100 µM
- TGI (NCI-H522 lung): > 100 µM
- TGI (MDA-MB-435): > 100 µM
- TGI (OVCAR-8 ovarian): > 100 µM
- TGI (HCC-2998 colon): > 100 µM
- TGI (CCRF-CEM leukemia): > 100 µM
- TGI (786-0 renal): > 100 µM
- TGI (SK-OV-3 ovarian): > 100 µM
- TGI (OVCAR-5 ovarian): > 100 µM
- TGI (NCI-H226 lung): > 100 µM
- TGI (RPMI-8226 leukemia): > 100 µM
- TGI (UACC-62 melanoma): > 100 µM
- TGI (RXF 393 renal): > 100 µM
- TGI (HS 578T breast): > 100 µM
- TGI (SF-539 CNS): > 100 µM
- TGI (UACC-257 melanoma): > 100 µM
- TGI (COLO 205 colon): > 100 µM
- TGI (OVCAR-4 ovarian): > 100 µM
- TGI (EKVX NSCLC): > 100 µM
- TGI (IGROV1 ovarian): > 100 µM
- TGI (UO-31 renal): > 100 µM
- TGI (PC-3 prostate): > 100 µM
- TGI (HCT-15 colon): > 100 µM
- TGI (SN12C renal): > 100 µM

Compound: CCOc1ccc2nc(S/C(=C/C=C(C#N)C#N)c3ccc(Cl)cc3)sc2c1
- GI50 (HCT-116 colon): 0.937 µM
- TGI (HCT-116 colon): 2.6 µM
- GI50 (NCI/ADR-RES ovarian): 2.32 µM
- TGI (NCI/ADR-RES ovarian): 5.19 µM
- GI50 (SK-MEL-28 melanoma): 3.81 µM
- TGI (SK-MEL-28 melanoma): 15.9 µM
- GI50 (SNB-19 CNS): 6.72 µM
- TGI (SNB-19 CNS): 24.5 µM
- GI50 (SF-295 CNS): 9.85 µM
- TGI (SF-295 CNS): 28.3 µM
- GI50 (NCI-H460 lung): 7.49 µM
- TGI (NCI-H460 lung): 25 µM
- GI50 (SW-620 colon): 0.631 µM
- TGI (SW-620 colon): 2.92 µM
- GI50 (MDA-MB-231 breast): 1.91 µM
- TGI (MDA-MB-231 breast): 5.08 µM
- GI50 (SR leukemia): 1.96 µM
- TGI (SR leukemia): 7.8 µM
- GI50 (TK-10 renal): 2.91 µM
- TGI (TK-10 renal): 9.83 µM
- GI50 (LOX IMVI melanoma): 0.546 µM
- TGI (LOX IMVI melanoma): 2.03 µM
- GI50 (MOLT-4 leukemia): 1.65 µM
- TGI (MOLT-4 leukemia): > 100 µM
- GI50 (OVCAR-3 ovarian): 2.99 µM
- TGI (OVCAR-3 ovarian): 10.9 µM
- GI50 (CAKI-1 renal): 4.34 µM
- TGI (CAKI-1 renal): 15.3 µM
- GI50 (NCI-H23 lung): 3.1 µM
- TGI (NCI-H23 lung): 10.1 µM
- GI50 (SK-MEL-5 melanoma): 1.76 µM
- TGI (SK-MEL-5 melanoma): 3.86 µM
- GI50 (DU-145 prostate): 3.51 µM
- TGI (DU-145 prostate): 10.7 µM
- GI50 (HOP-62 NSCLC): 4.08 µM
- TGI (HOP-62 NSCLC): 13.2 µM
- GI50 (T-47D breast): 3.91 µM
- TGI (T-47D breast): 17.4 µM
- GI50 (M14 melanoma): 2.13 µM
- TGI (M14 melanoma): 4.61 µM
- GI50 (MALME-3M melanoma): 3.52 µM
- TGI (MALME-3M melanoma): 21.9 µM
- GI50 (A549 NSCLC): 16.4 µM
- TGI (A549 NSCLC): 33.2 µM
- GI50 (U251 CNS): 0.628 µM
- TGI (U251 CNS): 4.29 µM
- GI50 (K-562 leukemia): 3.43 µM
- TGI (K-562 leukemia): 18.3 µM
- GI50 (MCF7 breast): 6.56 µM
- TGI (MCF7 breast): 26.7 µM
- GI50 (HL-60(TB) leukemia): 3.08 µM
- TGI (HL-60(TB) leukemia): 34.3 µM
- GI50 (SF-268 CNS): 4.63 µM
- TGI (SF-268 CNS): 19 µM
- GI50 (KM12 colon): 3.84 µM
- TGI (KM12 colon): 15.2 µM
- GI50 (NCI-H522 lung): 4.43 µM
- TGI (NCI-H522 lung): 15.2 µM
- GI50 (MDA-MB-435): 3.18 µM
- TGI (MDA-MB-435): 9.84 µM
- GI50 (OVCAR-8 ovarian): 3.48 µM
- TGI (OVCAR-8 ovarian): 10.3 µM
- GI50 (CCRF-CEM leukemia): 0.57 µM
- TGI (CCRF-CEM leukemia): 3.19 µM
- GI50 (786-0 renal): 1.95 µM
- TGI (786-0 renal): 4.37 µM
- GI50 (SK-OV-3 ovarian): 4.34 µM
- TGI (SK-OV-3 ovarian): 15.3 µM
- GI50 (OVCAR-5 ovarian): 15.2 µM
- TGI (OVCAR-5 ovarian): 28.5 µM
- GI50 (NCI-H226 lung): 3.63 µM
- TGI (NCI-H226 lung): 13.2 µM
- GI50 (A498 renal): 2.46 µM
- TGI (A498 renal): 8.6 µM
- GI50 (UACC-62 melanoma): 3.21 µM
- TGI (UACC-62 melanoma): 12.5 µM
- GI50 (RXF 393 renal): 5.3 µM
- TGI (RXF 393 renal): 23.5 µM
- GI50 (HS 578T breast): 4.22 µM
- TGI (HS 578T breast): 16.8 µM
- GI50 (SF-539 CNS): 3.6 µM
- TGI (SF-539 CNS): 9.24 µM
- GI50 (UACC-257 melanoma): 9.1 µM
- TGI (UACC-257 melanoma): 22.1 µM
- GI50 (COLO 205 colon): 3.26 µM
- TGI (COLO 205 colon): 11 µM
- GI50 (OVCAR-4 ovarian): 12.4 µM
- TGI (OVCAR-4 ovarian): 43.8 µM
- GI50 (EKVX NSCLC): 12.9 µM
- TGI (EKVX NSCLC): 28.9 µM
- GI50 (IGROV1 ovarian): 3.57 µM
- TGI (IGROV1 ovarian): 13 µM
- GI50 (UO-31 renal): 8.08 µM
- TGI (UO-31 renal): 27 µM
- GI50 (PC-3 prostate): 4.16 µM
- TGI (PC-3 prostate): 11.8 µM
- GI50 (HCT-15 colon): 2.42 µM
- TGI (HCT-15 colon): 8.81 µM
- GI50 (SN12C renal): 2.86 µM
- TGI (SN12C renal): 8.18 µM
